Test results as given in patent US20230255975A1, “METHODS FOR TREATING CANCER WITH COMBINATION THERAPIES” (Celgene Corporation, priority 2020, published 2023).
Where two headings read alike, the source gives them in different places.

Assays:
AMO1 cell line = experiment: Proliferation assay; assay type: cell-based; details: AMO1; for IC50: Homo sapiens, read-out: IC50 concentration, proliferation
Method: (§1) Proliferation and viability assays: Cell growth curves were determined by monitoring the viability of cells with Trypan blue exclusion on a Vi-Cell-XR (Becton Dickinson, Franklin Lakes, N.J., USA). Proliferation assays were performed in triplicate at least three times (n=3) using (3H)-thymidine incorporation. All data were plotted and analyzed using GraphPad Prism 7 (GraphPad Software, La Jolla, Calif., USA) software, represented as the mean with an error determined as ±s.d.
as §1, with “assay.” for “assays:”, “Cell lines” for “Proliferation assays”, “plated” for “performed”, “in 96-well round-bottom plates with the indicated drug concentrations or knockdown cells. […]” for “at least three times (n=3) using (3H)-thymidine incorporation.”

[1] = tested on: AMO1-PR (pomalidomide resistant) cell line; experiment: Proliferation assay; assay type: cell-based; details: for IC50: isogenic sensitive/resistant comparison, read-out: IC50 concentration, proliferation
Method: as §1
as §1, with “assay.” for “assays:”, “Cell lines” for “Proliferation assays”, “plated” for “performed”, “in 96-well round-bottom plates with the indicated drug concentrations or knockdown cells. […]” for “at least three times (n=3) using (3H)-thymidine incorporation.”

K12PE cell line = experiment: Proliferation assay; assay type: cell-based; details: for IC50: K12PE, read-out: IC50 concentration, proliferation
Method: as §1
as §1, with “assay.” for “assays:”, “Cell lines” for “Proliferation assays”, “plated” for “performed”, “in 96-well round-bottom plates with the indicated drug concentrations or knockdown cells. […]” for “at least three times (n=3) using (3H)-thymidine incorporation.”

K12PE-PR cell line = experiment: Proliferation assay; assay type: cell-based; details: for IC50: K12PE-PR, isogenic sensitive/resistant comparison, read-out: IC50 concentration, proliferation
Method: as §1
as §1, with “assay.” for “assays:”, “Cell lines” for “Proliferation assays”, “plated” for “performed”, “in 96-well round-bottom plates with the indicated drug concentrations or knockdown cells. […]” for “at least three times (n=3) using (3H)-thymidine incorporation.”

H929 cell line = experiment: Proliferation assay; assay type: cell-based; details: Homo sapiens, read-out: IC50 concentration, proliferation
Method: as §1
(§2) Proliferation and viability assay. Cell growth curves were determined by monitoring the viability of cells with Trypan blue exclusion on a Vi-Cell-XR (Becton Dickinson, Franklin Lakes, N.J., USA). Cell lines were plated in triplicate in 96-well round-bottom plates with the indicated drug concentrations or knockdown cells. Proliferation assays were performed in triplicate at least three times (n=3) using either the WST-1 tetrazolium salt (Roche Applied Science) reagent used according to the manufacturer's specifications or by (3H)-thymidine incorporation as previously described (Bjorklund et al., Blood Cancer Journal 5, e354, 2015). All data were plotted and analyzed using GraphPad Prism 7 (GraphPad Software, La Jolla, Calif., USA) software, represented as the mean with an error determined as ±s.d.

H929-PR cell line = experiment: Proliferation assay; assay type: cell-based; details: isogenic sensitive/resistant comparison, read-out: IC50 concentration, proliferation
Method: as §2

[2] = tested on: other kinases, including Cdk1 and Aurora B; details: selective inhibitors of NEK2; Henise 2011, Innocenti 2012; cited from earlier work
[3] = tested on: PLK1 signaling in MM1.S cells; experiment: Immunoblot of PLK1 signaling; assay type: cell-based; details: MMS.1 cells, increasing concentrations; FIG. 2C
Method: (§3) Immunoblotting: Immunoblot analysis was performed using WES kits, (Protein Simple, San Jose, Calif., USA) at least two times each (n≥2), where the best representative is shown.
(§4) The effects of pomalidomide in isogenic sensitive (EJM) and resistant (EJM-PR) and MM1.S cell lines was analyzed. […] To determine the role of PLK1 in pomalidomide response, EJM and EJM-PR cell lines were treated with pomalidomide and analyzed changes in PLK1 levels and downstream signaling. […] The changes in PLK1 transcript levels were further examined in response to pomalidomide treatment in MM1. […] Confocal microscopy was performed to study changes in PLK1 and CDC25C staining in MM1.S cells and a decrease in PLK1 levels and simultaneous decrease in CDC25C staining in response to pomalidomide and Compound 5 treatments was observed. […] Further analysis of the ChIP-seq datasets of Aiolos confirmed binding of Aiolos on TSS of PLK1 with overlapping transcriptional activation H3K27Ac signature extrapolated from publicly available ChIP-seq datasets in GM12878 cell line (Encode project). Since changes in PLK1 levels are due to decrease in PLK1 transcription in response to antiproliferative compounds, the effects of Aiolos and Ikaros knockdowns on PLK1 levels using MM1.S cells with inducible expression of Aiolos and Ikaros shRNAs were analyzed. Both Aiolos and Ikaros knock down lead to a decrease in PLK1 levels (FIG. 2F), indicating transcriptional regulation of PLK1 by substrates of Cereblon.

[4] = tested on: PLK1, pCDC25C and CDC25C in EJM cells; experiment: Immunoblot of PLK1 signaling; assay type: cell-based; details: EJM (sensitive) cells only, not EJM-PR
Method: as §3, §4

[5] = tested on: PLK1 transcript in MM1.S cells; experiment: PLK1 transcript levels (qPCR); assay type: cell-based; details: FIG. 2D
Method: RNA Extraction, Reverse Transcription, and Real-Time PCR Analysis: Total RNA was extracted using a RNeasy plus kit (Qiagen, Germantown, Md., USA) and reverse-transcribed using an iScrip reverse transcription kit (Bio-Rad, Philadelphia, Pa., USA). Quantitative real-time PCR (qPCR) analyses were performed using Taqman PCR Master Mix and the ViiA 7 Real-Time PCR System (Applied Biosystems, Foster City, Calif., USA). Gene expressions were calculated following normalization to GAPDH levels using the comparative CT method (ΔΔCT method). The primer sequences for qPCR are following:
The effects of pomalidomide in isogenic sensitive (EJM) and resistant (EJM-PR) and MM1.S cell lines was analyzed. […] To determine the role of PLK1 in pomalidomide response, EJM and EJM-PR cell lines were treated with pomalidomide and analyzed changes in PLK1 levels and downstream signaling. […] The changes in PLK1 transcript levels were further examined in response to pomalidomide treatment in MM1. […] Since changes in PLK1 levels are due to decrease in PLK1 transcription in response to antiproliferative compounds, the effects of Aiolos and Ikaros knockdowns on PLK1 levels using MM1.S cells with inducible expression of Aiolos and Ikaros shRNAs were analyzed. […]

[6] = tested on: CKS1B and E2F2 in EJM and EJM-PR cell lines; experiment: CKS1B and E2F2 in response to Pom; assay type: cell-based; details: isogenic EJM and EJM-PR; FIG. 12
Method: Effects of Pomalidomide (Pom) on CKS1B and E2F2 in Pom sensitive and resistant cell lines. […] Since Aiolos was not degraded in the EJM-PR cell line consistent with the absence of CKS1B and E2F2 downregulation, the binding of Aiolos on the transcriptional start sites (TSS) of CKS1B and E2F2 was analyzed.

Control shRNA cell lines = experiment: Biparametric Annexin V and Propidium Iodide assay; assay type: cell-based
Method: (§5) Biparametric assay for detection of cell cycle and apoptosis. Cell viability assay with Annexin V-FITC and propidium iodide was performed according to the published protocol cycle (Rieger et al., J Vis Exp. 2011, (50):2597; Léonce et al., Mol Pharmacol. 2001, 60(6):1383-1391).
(§6) Pomalidomide treatment combined with NEK2 inhibition increases apoptosis. Biparametric Annexin V and Propidium Iodide (PI) assay was performed to analyze cell cycle and apoptosis in the same sample and to quantify the proportion of cells undergoing apoptosis at each phase of cell cycle (Rieger et al., J Vis Exp. 2011, (50):2597; Léonce et al., Mol Pharmacol. 2001, 60(6):1383-1391). Control shRNA and NEK2 shRNA cell lines were treated with pomalidomide and followed cell cycle and apoptosis for the duration of two cell cycles. At 72 hours about 5.04% cells in the control shRNA lines were apoptotic compared to 21.1% apoptotic cells in NEK2 shRNA cell lines. […] At 96 hours about 9.5% of the cells in control shRNA lines and 24.7% of the NEK2 shRNA cell lines were apoptotic, and a majority of apoptotic cells were again contributed from G1-S phase of cell cycle. […] Combination of these two agents results in apoptosis of 20-25% cells in each cycle, with majority of apoptotic cells contributed from G1/S phase of cell cycle.

NEK2 shRNA cell lines = experiment: Biparametric Annexin V and Propidium Iodide assay; assay type: cell-based
Method: as §5, §6

Mc-CAR cell line = experiment: Proliferation assay; assay type: cell-based; details: 72 h; MC-CAR; Day 3 post treatment; NEK2 inhibitor; read-out: IC50 concentration, proliferation
Method: as §1, §2

[7] = tested on: Ikaros (IKZF1), Aiolos (IKZF3) and ZFP91; experiment: Substrate degradation by immunoblotting; assay type: cell-based; details: single agent
Method: Effect of NEK2 downregulation on Compound 5 and Compound 6-induced substrate degradation. […] The effect of NEK2 knockdown on pomalidomide mediated substrate degradation was also studied. Control and NEK2 shRNA cells were incubated to varying concentrations of pomalidomide. Pomalidomide treatment degraded Ikaros (IKZF1), Aiolos (IKZF3) and ZFP91 in a concentration dependent manner in control shRNA lines. A similar pattern of substrate degradation was maintained in NEK2 knockdown cell lines.

[8] = 72 h, Day 3 post treatment, NEK2 inhibitor
[9] = isogenic sensitive/resistant comparison
[10] = NCI-H929, 72 h, Day 3 post treatment, NEK2 inhibitor
[11] = NCI-H929, isogenic sensitive/resistant comparison

Q: For `CC(/C=C\C(F)(F)F)Oc1cc(-c2cc(-c3cc(CN(C)C)cs3)cnc2N)ccc1C(N)=O` (racemic) [Rac-CCT 250863, 4-[2-amino-5-[4-[(dimethylamino)methyl]-2-thienyl]-3-pyridinyl]-2-[[(2Z)-4,4,4-trifluoro-1-methyl-2-buten-1-yl]oxy]benzamide], which IC50 (AMO1 cell line; [8]) is on record?
A: 7.1 µM

Q: And the IC50 (AMO1 cell line; [9])?
A: 7 µM

Q: And the IC50 [1]?
A: 3.6 µM

Q: And the IC50 (K12PE cell line; [8])?
A: 8.7 µM

Q: And the IC50 (K12PE cell line; [9])?
A: 8.5 µM

Q: And the IC50 (K12PE-PR cell line)?
A: 5.17 µM

Q: What about the IC50 (H929 cell line; [10]) of the same compound?
A: 8 µM

Q: And the IC50 (H929 cell line; [11])?
A: 7.9 µM

Q: What about the IC50 (H929-PR cell line) of the same compound?
A: 5.2 µM

Q: What about the “Selectivity: effect on other kinases, including Cdk1 and Aurora B” value [2] of the same compound?
A: low effect on other kinases

Q: Which results are given for `Nc1cccc2c1C(=O)N(C1CCC(=O)NC1=O)C2=O` (stereo not drawn) [Compound 1, 4-amino-2-(2,6-dioxopiperidine-3-yl)isoindoline-1,3-dione]?
A: Synergy with trametinib on proliferation (AMO1 cell line; in combination with trametinib): strong synergy; Synergy with trametinib on proliferation ([1]; in combination with trametinib): strong synergy; Synergy analysis (Calcusyn) of combination with JQ1 on proliferation (K12PE cell line; K12PE cells, in combination with JQ1): synergistic; Synergy of combination with JQ1 on proliferation (K12PE-PR cell line; Pom resistant K12PE-PR, in combination with JQ1): synergistically decreased proliferation; PLK1 signaling [3]: dose dependent decrease; PLK1 levels and downstream effector pCDC25C and CDC25C [4]: dose dependent decrease; PLK1 transcript levels [5]: decreased PLK1 transcript levels in a dose dependent manner; CKS1B and E2F2 expression [6]: downregulated at the transcriptional level only in Pom sensitive cells; apoptotic cells (Control shRNA cell lines; 72 hours): about 5.04%; apoptotic cells (Control shRNA cell lines; 96 hours): about 9.5%; apoptotic cells (NEK2 shRNA cell lines; 72 hours): 21.1%; apoptotic cells (NEK2 shRNA cell lines; 96 hours): 24.7%

Q: For `C#CC(=O)Nc1ccc2c(c1)/C(=C/c1[nH]c(CC)nc1C)C(=O)N2` [JH295, (Z)—N-(3-((2-ethyl-4-methyl-1H-imidazol-5-yl)methylene)-2-oxoindolin-5-yl)propiolamide], which IC50 (AMO1 cell line; [8]) is on record?
A: 0.48 µM

Q: And the IC50 (AMO1 cell line; [9])?
A: 0.48 µM

Q: And the IC50 [1]?
A: 0.31 µM

Q: And the IC50 (K12PE cell line; [8])?
A: 4 µM

Q: What about the IC50 (K12PE cell line; [9]) of the same compound?
A: 4 µM

Q: And the IC50 (K12PE-PR cell line)?
A: 10.8 µM

Q: What about the IC50 (H929 cell line; [10]) of the same compound?
A: 0.37 µM

Q: What about the IC50 (H929 cell line; [11]) of the same compound?
A: 0.37 µM

Q: What about the IC50 (Mc-CAR cell line) of the same compound?
A: 0.56 µM

Q: And the IC50 (H929-PR cell line)?
A: 0.27 µM

Q: And the “substrate degradation (Ikaros, Aiolos, ZFP91) in comparison to DMSO control” value [7]?
A: No effect
